# Assay results from patent US7192746B2, “α-Isomaltosyltransferase, process for producing the same and use thereof” (Kabushiki Kaisha Hayashibara Seibutsu Kagaku Kenkyujo, priority 2000, dated 2007).
# Legend:
# Type in all cases: biochemical
# [1] = tested on: α-isomaltosyl-transferring enzyme from Bacillus globisporus C9; experiment: Action on saccharides (substrates, TLC); set-up: key: −: there was found no substrate change before and after the enzymatic reaction; +: there were found both the reduction of substrate and the formation of cyclotetrasaccharide after the enzymatic reaction; details: 2 units/g substrate, 2% (w/v) substrate, 30° C., pH 6.0, 24 hours
# Source text: (§1) To examine the saccharides in the supernatant, they were separated from the supernatant by silica gel thin-layer chromatography (abbreviated as “TLC” hereinafter) using, as a developer, a mixture solution of n-butanol, pyridine, and water (=6:4:1), and, as a thin-layer plate, “[…] 60”, an aluminum plate (20×20 cm) for TLC commercialized by […]. The coloration of both the separated total sugars by the sulfuric acid-methanol method and the reducing saccharides by the diphenylamine-aniline method detected a non-reducing saccharide at a position with an Rf value of about 0.31, which was positive on the former detection method but negative on the latter detection method.
# (§2) It was tested whether saccharides can be used as substrates for the α-isomaltosyl-transferring enzyme. For the purpose, a solution of maltose, maltotriose, maltotetraose, maltopentaose, maltohexaose, maltoheptaose, isomaltose, isomaltotriose, panose, isomaltosylmaltose, isopanose, α,α-trehalose, kojibiose, nigerose, α,β-trehalose, cellobiose, gentibiose, maltitol, maltotriitol, lactose, sucrose, α-cyclodextrin, β-cyclodextrin, γ-cyclodextrin, soluble starch, pullulan, or dextran was prepared. To each of the above solutions was added two units/g substrate of a purified specimen of either α-isomaltosyl-transferring enzyme from Bacillus globisporus C9 obtained by the method in Experiment 4, Bacillus globisporus C11 obtained by the method in Experiment 7, Bacillus globisporus N75 obtained by the method in Experiment 11, or Arthrobacter ramosus S1 obtained by the method in Experiment 15, or a partially purified α-isomaltosyl-transferring enzyme from Arthrobacter globiformis A19 obtained by the method in Experiment 15. The resulting each solution was adjusted to give a substrate concentration of 2% (w/v) and incubated at 30° C. and pH 6.0 for 24 hours. The enzyme solutions before and after the enzymatic reactions were respectively analyzed on TLC as disclosed in Experiment 1 to confirm whether the enzymes acted on these substrates.
# [2] = tested on: α-isomaltosyl-transferring enzyme from Arthrobacter ramosus S1; experiment: Action on saccharides (substrates, TLC); set-up: key: −: there was found no substrate change before and after the enzymatic reaction; +: there were found both the reduction of substrate and the formation of cyclotetrasaccharide after the enzymatic reaction; details: 2 units/g substrate, 2% (w/v) substrate, 30° C., pH 6.0, 24 hours
# Source text: as §1, §2
# [3] = tested on: α-isomaltosyl-transferring enzyme from Bacillus globisporus N75; experiment: Action on saccharides (substrates, TLC); set-up: key: −: there was found no substrate change before and after the enzymatic reaction; +: there were found both the reduction of substrate and the formation of cyclotetrasaccharide after the enzymatic reaction; details: 2 units/g substrate, 2% (w/v) substrate, 30° C., pH 6.0, 24 hours
# Source text: as §1, §2
# [4] = tested on: α-isomaltosyl-transferring enzyme from Arthrobacter globiformis A19; experiment: Action on saccharides (substrates, TLC); set-up: key: −: there was found no substrate change before and after the enzymatic reaction; +: there were found both the reduction of substrate and the formation of cyclotetrasaccharide after the enzymatic reaction; details: partially purified enzyme, 2 units/g substrate, 2% (w/v) substrate, 30° C., pH 6.0, 24 hours
# Source text: as §1, §2
# [5] = tested on: α-isomaltosyl-transferring enzyme from Bacillus globisporus C11; experiment: Action on saccharides (substrates, TLC); set-up: key: −: there was found no substrate change before and after the enzymatic reaction; +: there were found both the reduction of substrate and the formation of cyclotetrasaccharide after the enzymatic reaction; details: 2 units/g substrate, 2% (w/v) substrate, 30° C., pH 6.0, 24 hours
# Source text: as §1, §2
# [6] = tested on: α-isomaltosyl-transferring enzyme from Bacillus globisporus C9; experiment: Specificity to transferring acceptor; set-up: key: −: no saccharide transferred product was formed; ±: a saccharide-transferred product formed in an amount of less than one percent to the total sugars; +: a saccharide-transferred product was formed in an amount of over one percent but below 10% to the total sugars; ++: a saccharide-transferred product was formed in an amount of over 10% to the total sugars; details: panose as saccharide donor, 10 units/g substrate, 3.2% (w/v), 30° C., pH 6.0, 24 hours
# Procedure, shortened: (§3)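 Panose donor + test saccharide (equimolar-equal conc.), 3.2% (w/v) total, 10 units/g substrate enzyme; 30° C., pH 6.0, 24 h. GLC (FID) for mono/disaccharide acceptors, HPLC (RI) for tri- and larger. Scored +/−.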
# [7] = tested on: α-isomaltosyl-transferring enzyme from Arthrobacter ramosus S1; experiment: Specificity to transferring acceptor; set-up: key: −: no saccharide transferred product was formed; ±: a saccharide-transferred product formed in an amount of less than one percent to the total sugars; +: a saccharide-transferred product was formed in an amount of over one percent but below 10% to the total sugars; ++: a saccharide-transferred product was formed in an amount of over 10% to the total sugars; details: panose as saccharide donor, 10 units/g substrate, 3.2% (w/v), 30° C., pH 6.0, 24 hours
# Procedure, shortened: as §3
# [8] = tested on: α-isomaltosyl-transferring enzyme from Bacillus globisporus N75; experiment: Specificity to transferring acceptor; set-up: key: −: no saccharide transferred product was formed; ±: a saccharide-transferred product formed in an amount of less than one percent to the total sugars; +: a saccharide-transferred product was formed in an amount of over one percent but below 10% to the total sugars; ++: a saccharide-transferred product was formed in an amount of over 10% to the total sugars; details: panose as saccharide donor, 10 units/g substrate, 3.2% (w/v), 30° C., pH 6.0, 24 hours
# Procedure, shortened: as §3
# [9] = tested on: α-isomaltosyl-transferring enzyme from Arthrobacter globiformis A19; experiment: Specificity to transferring acceptor; set-up: key: −: no saccharide transferred product was formed; ±: a saccharide-transferred product formed in an amount of less than one percent to the total sugars; +: a saccharide-transferred product was formed in an amount of over one percent but below 10% to the total sugars; ++: a saccharide-transferred product was formed in an amount of over 10% to the total sugars; details: partially purified enzyme, panose as saccharide donor, 10 units/g substrate, 3.2% (w/v), 30° C., pH 6.0, 24 hours
# Procedure, shortened: as §3
# [10] = tested on: α-isomaltosyl-transferring enzyme from Bacillus globisporus C11; experiment: Specificity to transferring acceptor; set-up: key: −: no saccharide transferred product was formed; ±: a saccharide-transferred product formed in an amount of less than one percent to the total sugars; +: a saccharide-transferred product was formed in an amount of over one percent but below 10% to the total sugars; ++: a saccharide-transferred product was formed in an amount of over 10% to the total sugars; details: panose as saccharide donor, 10 units/g substrate, 3.2% (w/v), 30° C., pH 6.0, 24 hours
# Procedure, shortened: as §3
SMILES,"Enzymatic action for forming cyclotetrasaccharide, Enzyme of Strain C9 [1]","Enzymatic action for forming cyclotetrasaccharide, Enzyme of Strain S1 [2]","Enzymatic action for forming cyclotetrasaccharide, Enzyme of Strain N75 [3]","Enzymatic action for forming cyclotetrasaccharide, Enzyme of Strain A19 [4]","Enzymatic action for forming cyclotetrasaccharide, Enzyme of Strain C11 [5]","Product of transferring reaction, Enzyme of Strain C9 [6]","Product of transferring reaction, Enzyme of Strain S1 [7]","Product of transferring reaction, Enzyme of Strain N75 [8]","Product of transferring reaction, Enzyme of Stain A19 [9]","Product of transferring reaction, Enzyme of Strain C11 [10]"
"OC[C@H]1O[C@@H]2O[C@H]3[C@H](O)[C@@H](O)[C@@H](O[C@H]4[C@H](O)[C@@H](O)[C@@H](O[C@H]5[C@H](O)[C@@H](O)[C@@H](O[C@H]6[C@H](O)[C@@H](O)[C@@H](O[C@H]7[C@H](O)[C@@H](O)[C@@H](O[C@H]8[C@H](O)[C@@H](O)[C@@H](O[C@H]9[C@H](O)[C@@H](O)[C@@H](O[C@H]1[C@H](O)[C@H]2O)O[C@@H]9CO)O[C@@H]8CO)O[C@@H]7CO)O[C@@H]6CO)O[C@@H]5CO)O[C@@H]4CO)O[C@@H]3CO [γ-Cyclodextrin, γ-cyclodextrin]",−,−,−,−,−,−,−,−,−,−
"OC[C@H]1O[C@@H](O[C@H]2O[C@H](CO)[C@@H](O)[C@H](O)[C@H]2O)[C@H](O)[C@@H](O)[C@@H]1O [α,β-trehalose]",−,−,−,−,−,++ (a saccharide-transferred product was formed in an amount of over 10% to the total sugars),++ (a saccharide-transferred product was formed in an amount of over 10% to the total sugars),++ (a saccharide-transferred product was formed in an amount of over 10% to the total sugars),++ (a saccharide-transferred product was formed in an amount of over 10% to the total sugars),++ (a saccharide-transferred product was formed in an amount of over 10% to the total sugars)
"OC[C@H]1O[C@@](CO)(O[C@H]2O[C@H](CO)[C@@H](O)[C@H](O)[C@H]2O)[C@@H](O)[C@@H]1O [Sucrose, sucrose]",−,−,−,−,−,+ (a saccharide-transferred product was formed in an amount of over one percent but below 10% to the total sugars),+ (a saccharide-transferred product was formed in an amount of over one percent but below 10% to the total sugars),+ (a saccharide-transferred product was formed in an amount of over one percent but below 10% to the total sugars),+ (a saccharide-transferred product was formed in an amount of over one percent but below 10% to the total sugars),+ (a saccharide-transferred product was formed in an amount of over one percent but below 10% to the total sugars)
